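Dose response: 5 concentrations. Exposure: 48 h. Format: 96-well plates. Endpoint: linear interpolation; highest concentration if not reached. GI50 is the concentration that inhibits growth by half.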 Activity calls are given as the source filed them. No stated cut-off is given here; in the data, active = GI50 up to about 1.1 µM and inactive = higher.
Legend:
Assay in all cases: growth of human tumour cells (NCI), 48 h
[1] = tested on: HT-29
[2] = tested on: LXFL 529
[3] = tested on: HOP-62
[4] = tested on: HOP-92
[5] = tested on: TK-10
[6] = tested on: SR
[7] = tested on: DLD-1
[8] = tested on: NCI-H460
[9] = tested on: U-251
[10] = tested on: SNB-75
[11] = tested on: NCI-H522
[12] = tested on: 786-0
[13] = tested on: HL-60
[14] = tested on: UACC-257
[15] = tested on: ACHN
[16] = tested on: DMS-114
[17] = tested on: NCI-H226
[18] = tested on: HCT-116
[19] = tested on: SK-MEL-5
[20] = tested on: KM-20L2
[21] = tested on: UACC-62
[22] = tested on: NCI-H23
[23] = tested on: SNB-19
[24] = tested on: UO-31
[25] = tested on: SW-620
[26] = tested on: SF-268
[27] = tested on: SK-OV-3
[28] = tested on: M19-MEL
[29] = tested on: SK-MEL-2
[30] = tested on: SF-539
[31] = tested on: EKVX
[32] = tested on: OVCAR-4
[33] = tested on: RXF 393
[34] = tested on: OVCAR-3
[35] = tested on: COLO 205
[36] = tested on: HCT-15
[37] = tested on: A549
[38] = tested on: OVCAR-8
[39] = tested on: SF-295
[40] = tested on: HOP-18
[41] = tested on: Malme-3M
[42] = tested on: CAKI-1
[43] = tested on: RPMI-8226
[44] = tested on: SK-MEL-28
[45] = tested on: SN12C
[46] = tested on: K562
[47] = tested on: KM12
[48] = tested on: CCRF-CEM
[49] = tested on: MOLT-4
[50] = tested on: IGROV-1
[51] = tested on: XF498
[52] = tested on: M14
[53] = tested on: LOX IMVI
[54] = tested on: OVCAR-5
[55] = tested on: DMS-273
[56] = tested on: HCC 2998

C/C(=C\c1ccccc1)C(=O)c1c(C)cc(C)cc1C
GI50 [1]: > 100 µM (inactive)
GI50 [2]: > 100 µM (inactive)
GI50 [3]: > 100 µM (inactive)
GI50 [4]: > 100 µM (inactive)
GI50 [5]: > 100 µM (inactive)
GI50 [6]: > 100 µM (inactive)
GI50 [7]: > 100 µM (inactive)
GI50 [8]: > 100 µM (inactive)
GI50 [9]: > 100 µM (inactive)
GI50 [10]: > 100 µM (inactive)
GI50 [11]: > 100 µM (inactive)
GI50 [12]: > 100 µM (inactive)
GI50 [13]: > 100 µM (inactive)
GI50 [14]: > 100 µM (inactive)
GI50 [15]: > 100 µM (inactive)
GI50 [16]: > 100 µM (inactive)
GI50 [17]: > 100 µM (inactive)
GI50 [18]: > 100 µM (inactive)
GI50 [19]: > 100 µM (inactive)
GI50 [20]: > 100 µM (inactive)
GI50 [21]: > 100 µM (inactive)
GI50 [22]: > 100 µM (inactive)
GI50 [23]: > 100 µM (inactive)
GI50 [24]: > 100 µM (inactive)
GI50 [25]: > 100 µM (inactive)
GI50 [26]: > 100 µM (inactive)
GI50 [27]: > 100 µM (inactive)
GI50 [28]: > 100 µM (inactive)
GI50 [29]: > 100 µM (inactive)
GI50 [30]: > 100 µM (inactive)
GI50 [31]: > 100 µM (inactive)
GI50 [32]: > 100 µM (inactive)
GI50 [33]: > 100 µM (inactive)
GI50 [34]: > 100 µM (inactive)
GI50 [35]: > 100 µM (inactive)
GI50 [36]: > 100 µM
GI50 [37]: > 100 µM (inactive)
GI50 [38]: > 100 µM (inactive)
GI50 [39]: > 100 µM (inactive)
GI50 [40]: > 100 µM (inactive)
GI50 [41]: > 100 µM (inactive)
GI50 [42]: > 100 µM (inactive)
GI50 [43]: > 100 µM (inactive)
GI50 [44]: > 100 µM (inactive)
GI50 [45]: > 100 µM (inactive)
GI50 [46]: > 100 µM (inactive)
GI50 [47]: > 100 µM (inactive)
GI50 [48]: > 100 µM (inactive)
GI50 [49]: > 100 µM (inactive)
GI50 [50]: > 100 µM (inactive)
GI50 [51]: > 100 µM (inactive)
GI50 [52]: > 100 µM (inactive)

NNc1nnc(-c2ccccc2)nc1Cc1ccccc1
GI50 [1]: 8.3 µM (inactive)
GI50 [53]: 3.56 µM (inactive)
GI50 [2]: 3.85 µM (inactive)
GI50 [3]: 2.69 µM (inactive)
GI50 [5]: 9.35 µM (inactive)
GI50 [6]: 4.43 µM (inactive)
GI50 [7]: 13.4 µM (inactive)
GI50 [8]: 4.17 µM (inactive)
GI50 [9]: 6.87 µM (inactive)
GI50 [54]: 6.65 µM (inactive)
GI50 [11]: 5.4 µM (inactive)
GI50 [13]: 4.32 µM (inactive)
GI50 [15]: 4.04 µM (inactive)
GI50 [16]: 3.17 µM (inactive)
GI50 [17]: 2.37 µM (inactive)
GI50 [18]: 7.18 µM (inactive)
GI50 [19]: 12.3 µM (inactive)
GI50 [20]: 3.84 µM (inactive)
GI50 [21]: 3.62 µM (inactive)
GI50 [22]: 6.03 µM (inactive)
GI50 [55]: 7.26 µM (inactive)
GI50 [23]: 6.62 µM (inactive)
GI50 [24]: 3.81 µM (inactive)
GI50 [25]: 5.13 µM (inactive)
GI50 [26]: 3.64 µM (inactive)
GI50 [27]: 14.3 µM (inactive)
GI50 [28]: 7.41 µM (inactive)
GI50 [29]: 6.35 µM (inactive)
GI50 [30]: 4.45 µM (inactive)
GI50 [31]: 22.3 µM (inactive)
GI50 [32]: 9.14 µM (inactive)
GI50 [56]: 3.39 µM (inactive)
GI50 [33]: 5.53 µM (inactive)
GI50 [34]: 3.61 µM (inactive)
GI50 [35]: 7.53 µM (inactive)
GI50 [36]: 4.13 µM
GI50 [37]: 6.41 µM (inactive)
GI50 [38]: 4.52 µM (inactive)
GI50 [40]: 2.03 µM (inactive)
GI50 [41]: 3.56 µM (inactive)
GI50 [42]: 13.8 µM (inactive)
GI50 [44]: 7.71 µM (inactive)
GI50 [45]: 5.79 µM (inactive)
GI50 [46]: 5.65 µM (inactive)
GI50 [47]: 8.3 µM (inactive)
GI50 [48]: 2.64 µM (inactive)
GI50 [49]: 3.19 µM (inactive)
GI50 [50]: 10.9 µM (inactive)
GI50 [51]: 7.41 µM (inactive)
GI50 [52]: 8.57 µM (inactive)
